In patent US20260109693A1, “BUTENOLIDE COMPOUNDS CONTAINING THIAZOLIDINONE STRUCTURE AS WELL AS PREPARATION METHOD THEREFOR AND USE THEREOF” (priority 2023, published 2026):
In brackets after ≈: the same amount, converted by molar mass.

What was measured:
[1] = system: Pathogenic fungi of rice bakanae disease; test: In vitro fungicidal activity, mycelial growth rate method; format: cell-based; conditions: 50 mg/L, PDA plate
[2] = system: Pathogenic fungi of wheat scab; test: whole plant or invertebrate; format: cell-based; conditions: for inhibition rate, Pathogenic fungi of wheat scab: 50 mg/L, PDA plate, mycelial growth; for inhibition at 50 µg/mL: read-out: inhibition rate, Pathogenic fungi of wheat scab
[3] = system: Pathogenic fungi of tomato gray mold; test: In vitro fungicidal activity, mycelial growth rate method; format: cell-based; conditions: 50 mg/L, PDA plate
[4] = system: Pathogenic fungi of rape sclerotinia; test: as above; format: cell-based; conditions: 50 mg/L, PDA plate; for inhibition at 50 µg/mL: Sclerotinia
[5] = system: Pathogenic fungi of rice sheath blight; test: as above; format: cell-based; conditions: 50 mg/L, PDA plate
[6] = system: Pathogenic fungi of pepper phytophthora disease; test: as above; format: cell-based; conditions: 50 mg/L, PDA plate; for inhibition at 50 µg/mL: Phytophthora
[7] = system: corn rust disease; test: In vivo protective activity, live pot cultivation method; conditions: 400 mg/L, sprayed 24 hours before inoculation, potted plants
Experimental: (§1) The determination method was as follows: the live pot cultivation determination method was used, that is, the compound sample to be tested was dissolved in a small amount of solvent (the type of solvent was such as acetone, methanol, and DMF, and was selected according to its dissolving ability for the sample, with a volume ratio of solvent amount to spray amount equal to or less than 0.05), diluted with water containing 0.1% Tween 80, and prepared into a test solution with a required concentration. With a crop sprayer, the test solution was sprayed on a pathogen host plant (the host plant was a standard potted seedling cultivated in a greenhouse), and inoculation with the pathogen was performed after 24 hours. Based on the characteristics of the pathogen, plants that require temperature control and moisturizing cultivation were inoculated and placed in an artificial climate chamber for cultivation, and transferred to a greenhouse for cultivation after the pathogen infection was completed. […] The disease prevention efficacy of the compound was evaluated after the disease had fully developed (usually one week).
(§2) At a concentration of 400 mg/L, the in vivo protective activity determination results of some compounds are as follows: […]

[8] = system: wheat powdery mildew; test: as above; conditions: 400 mg/L, sprayed 24 hours before inoculation, potted plants
Experimental: as §1, §2

[9] = system: Rape sclerotinia pathogenic fungi; test: Precise toxicity testing, five concentration gradients of toxic PDA plates; format: cell-based
[10] = system: Rice bakanae pathogenic fungi; test: as above; format: cell-based
[11] = system: Wheat scab pathogenic fungi; format: cell-based
[12] = system: cucumber downy mildew; test: In vivo protective activity, live pot cultivation method; conditions: 400 mg/L, sprayed 24 hours before inoculation, potted plants
Experimental: as §1, §2

Compound: 5-(4-phenyl-2-oxo-1-oxaspiro[4,5]-dec-3-en-3-ethylidene)-2-thio-4-thiazolidinone [Compound 3-4]
- inhibition rate, Pathogenic fungi of rice bakanae disease [1]: 15.8 ± 2.4%
- inhibition rate, Pathogenic fungi of wheat scab [2]: 27.7 ± 2.9%
- inhibition rate, Pathogenic fungi of tomato gray mold [3]: 33.6 ± 1.7%
- inhibition rate, Pathogenic fungi of rape sclerotinia [4]: 68.3 ± 4.2%
- inhibition rate, Pathogenic fungi of rice sheath blight [5]: 31.9 ± 5.6%
- inhibition rate, Pathogenic fungi of pepper phytophthora disease [6]: 44.8 ± 0.3%

Compound: CSc1ccc(C2=C(C(C)=C3SC(Nc4ccccc4-c4ccc(Cl)cc4)=NC3=O)C(=O)OC23CCCCC3)cc1 [Compound I-10-17]
- efficacy against corn rust disease [7]: 89%

Compound: CC(=C1SC(Nc2ccc(C(F)(F)F)cc2)=NC1=O)C1=C(c2ccc(Cl)cc2)C2(CCCCC2)OC1=O [Compound I-6-9]
- efficacy against wheat powdery mildew [8]: 88%

Compound: CC(=C1SC(NCC(C)C)=NC1=O)C1=C(c2cccc(Cl)c2)C2(CCCCC2)OC1=O [Compound I-14-6]
- efficacy against wheat powdery mildew [8]: 85%

Compound: Cc1nc(C(F)(F)F)c(C(=O)Nc2c(Br)cc(OC(F)(F)F)cc2Br)s1 [Thifluzamide]
- inhibition at 50 µg/mL [1]: 5.8 ± 1.4%
- inhibition at 50 µg/mL [2]: 13.4 ± 6.3%
- inhibition at 50 µg/mL [3]: 28.2 ± 1.2%
- inhibition at 50 µg/mL [4]: 83 ± 1.2%
- EC50 ([9]; Sclerotinia): 1.53 µg/mL (≈ 2.9 µM)
- EC90 ([9]; Sclerotinia): 16.3 µg/mL (≈ 30.8 µM)
- inhibition at 50 µg/mL [5]: 90.1 ± 4.5%
- inhibition at 50 µg/mL [6]: 15.1 ± 2.8%

Compound: 5-(4-methyl-2-oxo-1-oxaspiro[4,5]-dec-3-en-3-ethylidene)-2-thio-4-thiazolidinone [Compound 3-1]
- inhibition rate, Pathogenic fungi of rice bakanae disease [1]: 100.0 ± 0.0%
- EC50 [10]: 0.72 µg/mL
- EC90 [10]: 5.04 µg/mL
- inhibition rate, Pathogenic fungi of wheat scab [2]: 100.0 ± 0.0%
- inhibition rate, Pathogenic fungi of tomato gray mold [3]: 62.4 ± 2.5%
- EC50 [11]: 0.079 µg/mL
- EC90 [11]: 4.97 µg/mL
- inhibition rate, Pathogenic fungi of rape sclerotinia [4]: 82.4 ± 1.7%
- EC50 ([9]; Rape sclerotinia): 2.02 µg/mL
- EC90 ([9]; Rape sclerotinia): 9.81 µg/mL
- inhibition rate, Pathogenic fungi of rice sheath blight [5]: 45.2 ± 2.1%
- inhibition rate, Pathogenic fungi of pepper phytophthora disease [6]: 59.7 ± 0.4%

Compound: CC(=C1SC(Nc2ccc(F)cc2-c2ccc(Cl)c(Cl)c2)=NC1=O)C1=C(c2ccc(C(F)(F)F)cc2)C2(CCCCC2)OC1=O [Compound I-12-15]
- efficacy against cucumber downy mildew [12]: 93%

Compound: CCOC(=O)C(C#N)=C(N)c1ccccc1 [Phenamacril]
- inhibition rate, Pathogenic fungi of rice bakanae disease [1]: 100.0 ± 0.0%
- EC50 [10]: 0.071 µg/mL (≈ 0.328 µM)
- EC90 [10]: 0.54 µg/mL (≈ 2.5 µM)
- inhibition rate, Pathogenic fungi of wheat scab [2]: 100.0 ± 0.0%
- inhibition rate, Pathogenic fungi of tomato gray mold [3]: 13.1 ± 0.3%
- EC50 [11]: 0.078 µg/mL (≈ 0.361 µM)
- EC90 [11]: 5.60 µg/mL (≈ 25.9 µM)
- inhibition rate, Pathogenic fungi of rape sclerotinia [4]: 23.0 ± 1.3%
- inhibition rate, Pathogenic fungi of rice sheath blight [5]: 11.5 ± 1.4%
- inhibition rate, Pathogenic fungi of pepper phytophthora disease [6]: 8.1 ± 2.1%

Compound: CCCCNC1=NC(=O)C(=C(C)C2=C(c3ccc(Br)cc3)C3(CCCCC3)OC2=O)S1 [Compound I-7-5]
- efficacy against cucumber downy mildew [12]: 95%

Compound: CC(=C1SC(Nc2ccccc2)=NC1=O)C1=C(c2cccc(C(F)(F)F)c2)C2(CCCCC2)OC1=O [Compound I-16-7]
- efficacy against wheat powdery mildew [8]: 81%

Compound: COC(=O)Nc1nc2ccccc2[nH]1 [Carbendazim]
- inhibition at 50 µg/mL [1]: 87.5 ± 3.1%
- inhibition at 50 µg/mL [2]: 100%
- inhibition at 50 µg/mL [3]: 5.4 ± 2.4%
- inhibition at 50 µg/mL [4]: 72.5 ± 2.1%
- inhibition at 50 µg/mL [5]: 100%
- inhibition at 50 µg/mL [6]: 4.6 ± 1.2%

Compound: CCCCNC1=NC(=O)C(=C(C)C2=C(c3ccccc3)C(C)(C)OC2=O)S1 [Compound I-3-5]
- efficacy against corn rust disease [7]: 86%
